Test: Safety and tolerability
Type: in vivo, Japanese patients
Settings: just after meals, in combination with erlotinib 150 mg QD

## O=C1NC(=O)[C@@H](c2cn3c4c(cccc24)CCC3)[C@@H]1c1c[nH]c2ccccc12 [tivantinib]
Japanese EMs
  Recommended phase II dose (RP2D) of tivantinib: 360 mg BID
Japanese PMs
  Recommended phase II dose (RP2D) of tivantinib: 240 mg BID
